Consider two compounds from article PMC7268545, “Development of a QPatch-Automated Electrophysiology Assay for Identifying TMEM16A Small-Molecule Inhibitors” (Assay and Drug Development Technologies, 2020).

For the test, the target named is T1, human ANO1 channel (isoform acd) (Homo sapiens, UniProt Q5XXA6).
T1 construct: host or cells: HEK293T
T1 sequence (Q5XXA6 1-986): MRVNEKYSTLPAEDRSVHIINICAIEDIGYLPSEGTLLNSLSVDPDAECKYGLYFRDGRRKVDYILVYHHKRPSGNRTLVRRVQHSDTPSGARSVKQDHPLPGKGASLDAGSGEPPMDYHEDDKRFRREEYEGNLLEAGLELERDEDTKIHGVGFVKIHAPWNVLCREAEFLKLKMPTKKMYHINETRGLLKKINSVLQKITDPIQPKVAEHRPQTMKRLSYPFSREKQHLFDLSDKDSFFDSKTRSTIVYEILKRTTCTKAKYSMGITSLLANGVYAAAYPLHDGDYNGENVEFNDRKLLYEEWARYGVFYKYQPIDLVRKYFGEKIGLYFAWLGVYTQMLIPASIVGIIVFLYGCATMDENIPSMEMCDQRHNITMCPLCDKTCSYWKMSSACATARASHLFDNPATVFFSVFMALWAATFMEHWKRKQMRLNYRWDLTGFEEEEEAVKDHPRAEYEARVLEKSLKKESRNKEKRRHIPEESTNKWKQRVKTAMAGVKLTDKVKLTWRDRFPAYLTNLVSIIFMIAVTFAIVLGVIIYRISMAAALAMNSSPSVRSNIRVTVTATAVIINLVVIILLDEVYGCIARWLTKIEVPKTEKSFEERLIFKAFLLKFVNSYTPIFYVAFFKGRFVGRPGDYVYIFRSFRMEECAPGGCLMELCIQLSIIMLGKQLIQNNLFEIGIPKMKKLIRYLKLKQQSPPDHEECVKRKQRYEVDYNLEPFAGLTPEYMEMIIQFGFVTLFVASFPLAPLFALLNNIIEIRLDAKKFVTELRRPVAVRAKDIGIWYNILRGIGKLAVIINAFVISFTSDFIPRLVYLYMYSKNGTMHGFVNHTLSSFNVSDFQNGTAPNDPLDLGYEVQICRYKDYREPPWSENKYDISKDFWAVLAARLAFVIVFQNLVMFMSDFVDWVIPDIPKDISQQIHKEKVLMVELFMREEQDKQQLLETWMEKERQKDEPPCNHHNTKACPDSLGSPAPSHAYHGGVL
Description: QPatch-48 automated whole-cell electrophysiology, cumulative five-concentration single-addition protocol. The format is cell-based. As to the method: HEK293T cells stably expressing the human ANO1 channel (isoform acd) were obtained from Scottish Biomedical. Cells were cultured in Sigma Minimum Essential Media containing 10% heat-inactivated fetal bovine serum, 1% penicillin/streptomycin, 1% glutamine, and […] geneticin. Cells were maintained in a 37°C, 5% CO2 environment. Cells were passaged every 3 days after they had reached ∼70% confluency and were not allowed to reach a density greater than 1–2 × 10^5 cells/cm^2 during routine culture. When subculturing, cells were rinsed once with room temperature 1 × phosphate-buffered saline (PBS; Ca^2+/Mg^2+ free), lifted with TrypLE Express, resuspended in prewarmed growth media, and counted using a hemocytometer. Cells were then plated in T150 flasks at a density of 2.9 × 10^4 cells/cm^2 to be either used in the assay or subcultured 72 h later.
On the day of the experiment, cells plated at a density of 2.9 × 10^4 cells/cm^2 72 h prior should be ∼70%–80% confluent. After cells were rinsed with prewarmed 1 × PBS (Ca^2+/Mg^2+ free), 3 mL of room temperature Detachin solution (Genlantis) was added to the flask and tilted gently two to three times to cover all the cells. Approximately 2 mL of Detachin was aspirated from the flask, leaving 1 mL on the cells, and then placed in the 37°C incubator for 5 min. Once cells had rounded up, the cells were dislodged by tapping the flask gently. The cells were then resuspended in 5 mL of warm serum-free media (EX-CELL ACF CHO Medium; Sigma; supplemented with 4 mM L-glutamine and 10 mM HEPES). A glass Pasteur pipette with a rubber bulb was then used to gently dissociate the cells from one another. Detachin will often leave cells as doublets or clumps, conditions that will disrupt seal formation on the QPatch. The cells were triturated ∼30 times and then, still using the Pasteur pipette, transferred into the QPatch Cell Hotel. This ensures that cells detach from one another leaving a suspension of single cells. A QStirrer was added to the Cell Hotel and the cell suspension was immediately placed on the QPatch device. Cells were utilized within 15 min.
Compounds were reconstituted in dimethyl sulfoxide (DMSO; Sigma) as 10 mM stock solutions. An automated dilution machine set up the microtiter plate (MTP ) by making 1:5 dilutions from a starting concentration of 30 μM. The concentration of DMSO was equal for all concentrations tested. Each MTP contained one row of a negative control (DMSO) and a positive control (benzbromarone). A total of eight compounds were run at a time. All compounds tested were produced in-house.
Whole-cell patch-clamp experiments were performed on a QPatch-48-automated electrophysiology platform (Sophion Biosciences) using the 48-channel, single-hole QPlate (resistance 2.0 ± 0.4 MΩ). The external buffer (in mM) was 140 NaCl, 4 KCl, 2 CaCl2, 1 MgCl2, 10 HEPES, 10 glucose, pH 7.4 (osmolarity = 300), and the internal buffer (in mM) was 110 CsCl, 20 TEA-Cl, 5.374 CaCl2, 1.75 MgCl2, 10 EGTA, 10 HEPES, 4 Na2ATP, pH 7.2 (osmolarity = 310). Cell positioning was set to a 5-s wait time with a positioning pressure of −60 mbar and a positioning time-out of 60 s. Resistance was set to increase 750% to ensure the success of positioning. To obtain a seal, pressure was increased to −70 mbar with an allowed pressure of −130 to −20 mbar and a holding pressure of −20 mbar. The holding potential was set to −70 mV and a 240-s time-out was set. The minimum seal resistance was set to 0.02 GΩ. To go whole cell, five 1-s suction pulses were applied starting at −180 mbar and increasing with −40 mbar increments with a pulse period of 10 s. Suction ramp and voltage zap protocols were kept standard, according to the default HEK cell settings. […] The suction ramp order of use was set to 2 with a ramp amplitude of −450 mbar and a ramp slope of 100 ms/mbar.
Once established in whole-cell configuration, cells are clamped to a holding potential (Vhold) of 0 mV.

[1] abbreviates: half plate (24-well format), cumulative single-addition, n = 5, read-out: average IC50 (mean ± SD).
Setting [2] is: independent experiment 3, read-out: IC50s for independent experiments 3.
Setting [3] is: independent experiment 4, read-out: IC50s for independent experiments 4.
[4] abbreviates: independent experiment 5, read-out: IC50s for independent experiments 5.

Read-outs that look alike come from different tables or passages of the source.

Take `CCc1oc2ccccc2c1C(=O)c1cc(Br)c(O)c(Br)c1` [Benzbromarone]: the IC50 reads like this: (IC50s for independent experiments 1, independent experiment 1, block at +100 mV, 250 nM internal free-calcium) 3.45 µM; (IC50s for independent experiments 2, independent experiment 2) 1.51 µM; (full 48-well plate format (with rundown), n = 1, read-out: IC50, full 48-well plate format) 0.73 µM; under setting [1], 2.54 ± 0.94 µM; under setting [2], 1.31 µM; under setting [3], 2.3 µM. Further, under setting [4], the IC50 came to 3.18 µM.
`O=C(Nc1ccc([N+](=O)[O-])cc1Cl)c1cc(Cl)ccc1O` [Niclosamide]: the IC50 is roughly 1 µM (QPatch, 1-min incubations, read-out: concentration inhibiting 50% of channel current); 1.6 ± 0.39 µM under setting [1]; 1.62 µM (independent experiment 1, block at +100 mV, 250 nM internal free-calcium, read-out: IC50s for independent experiments 1); 1.43 µM (independent experiment 2, read-out: IC50s for independent experiments 2); 1.05 µM under setting [2]; 2.09 µM under setting [3]. For the same compound, the IC50 under setting [4] turned out to be 1.81 µM.
